Data taken from ChEMBL document CHEMBL4007400, “Role of Reactive Oxygen Species (ROS) in Therapeutics and Drug Resistance in Cancer and Bacteria” (J Med Chem, 2017).
pKi: −log10 of the molar value.

Target: T1, 4,4'-diapophytoene synthase (Staphylococcus aureus, UniProt A9JQL9)
T1 sequence (A9JQL9 whole entry): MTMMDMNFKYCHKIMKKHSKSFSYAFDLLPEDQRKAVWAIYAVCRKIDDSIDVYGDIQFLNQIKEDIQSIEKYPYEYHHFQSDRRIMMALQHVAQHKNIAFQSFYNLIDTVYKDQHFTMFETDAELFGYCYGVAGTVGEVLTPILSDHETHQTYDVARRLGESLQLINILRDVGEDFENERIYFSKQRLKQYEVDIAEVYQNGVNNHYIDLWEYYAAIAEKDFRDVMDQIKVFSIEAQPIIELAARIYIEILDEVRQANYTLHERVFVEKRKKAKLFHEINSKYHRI
Assay: Inhibition of Staphylococcus aureus ATCC 27659 histidine-tagged full length CrtM expressed in Escherichia coli BL21(DE3) cells assessed as decrease in staphyloxanthin formation after 30 mins by continous spectrophotometric method

`O=P(O)(O)C(CCCc1cccc(Oc2ccccc2)c1)S(=O)(=O)O` (stereo unspecified) gave a pKi of 8.82.
